Data: patent US20250195485A1, “PROPIONIC ACID DERIVATIVE AND MEDICAL USE THEREOF” (Xizang Haisco Pharmaceutical Co., Ltd., priority 2021, published 2025)

Key:
[1] = Pharmacokinetic test in mice; format: in vivo; conditions: male BALB/c mice
Procedure: Experimental animals: male BALB/c mice, 20-25 g, 6 mice/compound. Purchased from Chengdu Ddossy Experimental Animals Co., Ltd.
Test design: on the day of the test, 6 BALB/c mice were randomly grouped according to their body weights. The animals were fasted with water available for 12 to 14 h one day before the administration, and were fed 4 h after the administration.
Before and after the administration, 0.06 mL of blood was taken from the orbit of the animals under isoflurane anesthesia and placed in an EDTAK2 centrifuge tube. The blood was centrifuged at 5000 rpm and 4° C. for 10 min to collect the plasma. The blood collection time points for the intravenous group and intragastric administration group were: 0 min, 5 min, 15 min, 30 min, 1 h, 2 h, 4 h, 6 h, 8 h, and 24 h. Before analysis and detection, all samples were stored at −80° C. The samples were analyzed quantitatively by LC-MS/MS.

integrin α4β7 = target: T1, integrin α4β7 (Homo sapiens, UniProt P13612+P26010); assay: Integrin α4β7-mediated cell adhesion assay (RPM18866 cells on MAdCAM-1); format: cell-based; conditions: for IC50: RPMI-8866 cells adhering to MAdCAM-1; for α4β1/α4β7: selectivity ratio of α4β1 IC50 to α4β7 IC50 in cell adhesion
T1 sequence (P13612 34-1032): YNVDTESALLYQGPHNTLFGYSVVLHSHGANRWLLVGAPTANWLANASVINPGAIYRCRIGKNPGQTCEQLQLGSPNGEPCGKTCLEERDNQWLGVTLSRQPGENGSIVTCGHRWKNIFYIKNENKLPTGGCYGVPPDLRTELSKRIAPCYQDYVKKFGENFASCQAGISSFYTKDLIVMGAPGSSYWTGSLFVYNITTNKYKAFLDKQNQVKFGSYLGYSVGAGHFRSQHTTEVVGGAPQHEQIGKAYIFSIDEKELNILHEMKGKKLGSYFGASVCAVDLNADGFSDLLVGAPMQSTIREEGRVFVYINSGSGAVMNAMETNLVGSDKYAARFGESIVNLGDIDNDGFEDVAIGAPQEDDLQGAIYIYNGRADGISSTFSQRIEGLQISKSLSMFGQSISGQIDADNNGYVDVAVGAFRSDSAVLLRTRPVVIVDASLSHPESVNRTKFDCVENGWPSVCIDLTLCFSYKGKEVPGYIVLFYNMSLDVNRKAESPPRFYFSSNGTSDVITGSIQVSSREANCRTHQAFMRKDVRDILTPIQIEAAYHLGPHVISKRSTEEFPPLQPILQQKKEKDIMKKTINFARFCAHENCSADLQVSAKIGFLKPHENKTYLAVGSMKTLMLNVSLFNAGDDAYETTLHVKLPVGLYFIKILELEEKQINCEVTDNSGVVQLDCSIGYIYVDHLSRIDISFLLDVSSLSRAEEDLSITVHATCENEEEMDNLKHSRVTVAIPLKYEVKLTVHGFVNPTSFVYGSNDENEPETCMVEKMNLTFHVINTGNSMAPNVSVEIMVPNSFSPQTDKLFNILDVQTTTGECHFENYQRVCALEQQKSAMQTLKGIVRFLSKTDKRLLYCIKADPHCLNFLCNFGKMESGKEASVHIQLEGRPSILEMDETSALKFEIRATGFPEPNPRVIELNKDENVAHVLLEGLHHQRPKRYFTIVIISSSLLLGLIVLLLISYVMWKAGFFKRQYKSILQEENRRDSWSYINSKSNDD
T1 sequence (P26010 20-798): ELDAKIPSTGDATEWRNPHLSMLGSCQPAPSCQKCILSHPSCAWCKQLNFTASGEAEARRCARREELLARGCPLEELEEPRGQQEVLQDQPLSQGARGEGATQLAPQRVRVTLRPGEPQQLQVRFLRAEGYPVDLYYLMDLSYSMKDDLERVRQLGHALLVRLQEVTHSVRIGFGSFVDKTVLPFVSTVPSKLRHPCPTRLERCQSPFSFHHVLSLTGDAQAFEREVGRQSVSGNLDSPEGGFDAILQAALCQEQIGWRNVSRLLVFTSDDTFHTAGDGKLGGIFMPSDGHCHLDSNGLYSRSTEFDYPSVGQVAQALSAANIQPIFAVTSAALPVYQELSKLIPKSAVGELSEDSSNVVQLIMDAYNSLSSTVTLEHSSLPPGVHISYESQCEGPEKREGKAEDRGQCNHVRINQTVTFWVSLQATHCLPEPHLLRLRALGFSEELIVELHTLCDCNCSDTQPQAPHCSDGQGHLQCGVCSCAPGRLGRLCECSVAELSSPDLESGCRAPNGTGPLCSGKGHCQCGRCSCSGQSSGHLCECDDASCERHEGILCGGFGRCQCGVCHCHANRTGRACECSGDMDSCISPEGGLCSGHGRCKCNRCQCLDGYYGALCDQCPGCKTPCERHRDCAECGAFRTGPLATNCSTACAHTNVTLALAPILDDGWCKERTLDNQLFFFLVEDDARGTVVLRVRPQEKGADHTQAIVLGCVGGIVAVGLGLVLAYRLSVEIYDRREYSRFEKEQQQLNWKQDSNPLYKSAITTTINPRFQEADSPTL
Procedure: MAdCAM-1 was formulated with TBS buffer to a final concentration of 2 μg/ml, 50 μl of the solution was transferred to a 96-well plate, and the plate was coated with same at 4° C. overnight. The plate was washed with TBS buffer three times, then 150 μl of a blocking solution (TBS buffer containing 1% BSA) was added, and the plate was blocked at 37° C. for 1 h. […] 50 μl of the cell suspension was transferred to a 96-well plate so that the cell density reached 2×10^5 cells/well. Then 1 μl of the compound at different concentrations or DMSO was added and the plate was incubated at 37° C. for 1 h or 2 h. The plate was washed with TBS buffer to remove non-adherent cells. 50 μl of a substrate (4-nitrophenyl-N-acetyl-β-D-glucosaminide) was added and the plate was incubated at 37° C. for 2 h. […] The IC50 value was calculated using GraphPad Prism 6 software.

integrin α4β1 = target: T2, integrin α4β1 (Homo sapiens, UniProt P05556+P13612); assay: Integrin α4β1-mediated cell adhesion assay (Jurkat cells on VCAM); format: cell-based; conditions: Jurkat cells adhering to VCAM-1
T2 construct: Jurkat cells were collected, washed twice using DPBS buffer; endogenous in cells; host or cells: Jurkat cells
T2 sequence (P05556 21-798, one chain of several): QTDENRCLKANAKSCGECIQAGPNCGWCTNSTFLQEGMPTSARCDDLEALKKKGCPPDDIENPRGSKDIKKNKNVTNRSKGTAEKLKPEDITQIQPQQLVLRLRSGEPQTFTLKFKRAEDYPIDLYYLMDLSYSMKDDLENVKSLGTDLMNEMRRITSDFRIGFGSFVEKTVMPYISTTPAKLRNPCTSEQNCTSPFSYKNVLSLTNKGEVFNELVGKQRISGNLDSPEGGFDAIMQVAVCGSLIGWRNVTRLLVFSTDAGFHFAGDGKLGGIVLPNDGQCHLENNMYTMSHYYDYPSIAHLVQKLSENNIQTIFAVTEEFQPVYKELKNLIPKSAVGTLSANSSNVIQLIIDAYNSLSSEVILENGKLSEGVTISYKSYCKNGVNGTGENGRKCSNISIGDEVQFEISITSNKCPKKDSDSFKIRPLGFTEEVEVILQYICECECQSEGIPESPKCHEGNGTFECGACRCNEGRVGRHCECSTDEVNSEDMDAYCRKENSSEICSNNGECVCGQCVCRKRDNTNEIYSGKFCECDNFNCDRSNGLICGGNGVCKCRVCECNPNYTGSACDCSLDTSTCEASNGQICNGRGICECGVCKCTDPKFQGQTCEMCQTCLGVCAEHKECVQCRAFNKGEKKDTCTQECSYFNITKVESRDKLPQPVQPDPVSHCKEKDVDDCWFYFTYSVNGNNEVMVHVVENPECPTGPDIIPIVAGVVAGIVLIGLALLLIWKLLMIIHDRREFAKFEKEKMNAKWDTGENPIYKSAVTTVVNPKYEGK
Procedure: VCAM was formulated into a final concentration of 0.5 μg/ml with a coating buffer, 50 μl of the solution was transferred to a 96-well plate, and the plate was coated with same at 4° C. overnight. The plate was washed with coating buffer three times, then 150 μl of a blocking solution (coating buffer containing 1% BSA) was added, and the plate was blocked at 37° C. for 1 h. […] 50 μl of the cell suspension was transferred to a 96-well plate so that the cell density reached 2×10^5 cells/well. Then 1 μl of the test compound at different concentration or DMSO was added and the plate was incubated at 37° C. for 1 h. The plate was washed with coating buffer to remove non-adherent cells. 50 μl of a substrate (4-nitrophenyl-N-acetyl-β-D-glucosaminide) was added and the plate was incubated at 37° C. for 2 h. […] The […] was calculated using GraphPad Prism 6 software. The results are shown in Table 1. • Coating buffer: DMEM+20 mM HEPES+0.4 mM MnC2 • Action buffer: DMEM+20 mM HEPES+0.1% BSA+0.4 mM MnCl2 • DMEM: dulbecco's modified eagle medium; • HEPES: 2-[4-(2-hydroxyethyl)piperazin-1-yl]ethanesulfonic acid

| IC50 (integrin α4β7) [µM] | α4β1/α4β7 (integrin α4β7) | IC50 (integrin α4β1) [µM] | SMILES | also measured |
| --- | --- | --- | --- | --- |
| < 0.0005 | – | – | C#Cc1cc(-c2c(C)cc(F)cc2C)cc(C(CC(=O)O)NC(=O)C(CC(C)C)n2cc(CCN(C)C)c(C(F)(F)F)cc2=O)c1F (stereo not shown) [Compound 26-2] | – |
| < 0.0005 | 1011.7 | 0.0911 | Cc1cc(F)cc(C)c1-c1cc(C(CC(=O)O)NC(=O)C(CC(C)C)n2cc(CCN(C)C)c(C(F)(F)F)cc2=O)cc2c1CCC2 (stereo not shown) [Compound 30-2] | – |

Continued, compound first:

| SMILES | IC50 (integrin α4β7) [µM] | α4β1/α4β7 (integrin α4β7) | IC50 (integrin α4β1) [µM] | also measured |
| --- | --- | --- | --- | --- |
| Cc1cc(-c2c(C)cc(F)cc2C)cc([C@H](CC(=O)O)NC(=O)[C@H](CC(C)C)n2cc(CCN(C)C)c(C(F)(F)F)cc2=O)c1F [Control compound A, reference compound] | – | – | – | F ([1]; intragastrically 10 mg/kg vs intravenously 1 mg/kg): 28.2%; clearance ([1]; mouse, intravenous, plasma, groups: intravenously 1 mg/kg, intragastrically 10 mg/kg (route for this parameter not stated)): 56 mL/min/kg; AUC ([1]; mouse, plasma, oral absorption results, groups: intravenously 1 mg/kg, intragastrically 10 mg/kg (route for this parameter not stated)): 830 ng·h/mL |
| Cc1cc(C)c(-c2cc(C(CC(=O)O)NC(=O)C(CC(C)C)n3cc(CCN(C)C)c(C(F)(F)F)cc3=O)cn3ccnc23)c(C)c1 (stereo not shown) [Trifluoroacetate of compound 22-2] | < 0.01 | – | – | – |
| Cc1ccn(C(CC(C)C)C(=O)NC(CC(=O)O)c2cc(-c3c(C)cccc3C)n3ccnc3c2)c(=O)c1 (stereo not shown) [Compound 9] | < 0.01 | – | – | – |
| C#Cc1ncc(C(CC(=O)O)NC(=O)C(CC(C)C)n2cc(CCN3CC(F)C3)cc(F)c2=O)cc1-c1c(C)cccc1C (stereo not shown) [Compound 14] | < 0.0005 | >500 | 0.127 | – |
| Cc1cc(F)cc(C)c1-c1cc(C(CC(=O)O)NC(=O)C(CC(C)C)n2cc(CCN(C)C)c(C(F)(F)F)cc2=O)cc2nccn12 (stereo not shown) [Trifluoroacetate of compound 20-2] | < 0.0005 | >100 | 0.0366 | – |
| Cc1cc(-c2c(C)cccc2C)cc(C(CC(=O)O)NC(=O)C(CC(C)C)n2cc(CCN3CC(CF)C3)cc(F)c2=O)c1F (stereo not shown) [Compound 13] | < 0.01 | – | – | – |
